Experiment: photoluminescence quantum yield (fraction); solvent given as SMILES

Compound: CCC1=C(C)C2=C(c3c4ccccc4c(C)c4ccccc34)c3c(C)c(CC)c(C)n3[B-](F)(F)[N+]2=C1C
- photoluminescence quantum yield (in CC#N): 0.054
- photoluminescence quantum yield (in CCCCCC): 0.883
- photoluminescence quantum yield (in CCO): 0.314
- photoluminescence quantum yield (in CN(C)C=O): 0.111
- photoluminescence quantum yield (in Cc1ccccc1): 0.863
- photoluminescence quantum yield (in ClCCl): 0.667

Compound: COc1ccc(-c2ccc(-c3cc(-c4ccccn4)nc(-c4ccccn4)c3)cc2)cc1
- photoluminescence quantum yield (in ClCCl): 0.5

Compound: F[B-]1(F)n2c(cc(Br)c2Br)C(c2ccccc2)=C2C=C(Br)C(c3ccc[nH]3)=[N+]21
- photoluminescence quantum yield (in ClC(Cl)Cl): 0.47

Compound: CCn1c2ccccc2c2cc(-c3cc(-c4ccc5c(c4)c4ccccc4n5CC)nc(OC)n3)ccc21
- photoluminescence quantum yield (in C1CCOC1): 0.48
- photoluminescence quantum yield (in CCOC(C)=O): 0.76
- photoluminescence quantum yield (in CN(C)C=O): 0.69
- photoluminescence quantum yield (in Cc1ccccc1): 0.68
- photoluminescence quantum yield (in ClCCl): 0.69

Compound: O=Cc1ccc(Oc2ccc3c4c(cccc24)C(=O)N(CCO)C3=O)cc1
- photoluminescence quantum yield (in ClC(Cl)Cl): 0.19

Compound: C#CCNC1=C2C(C)=CC(C)=[N+]2[B-](F)(F)n2c(C)cc(C)c21
- photoluminescence quantum yield (in C1CCCCC1): 0.23
- photoluminescence quantum yield (in CC(C)=O): 0.063
- photoluminescence quantum yield (in CCOC(C)=O): 0.084
- photoluminescence quantum yield (in CO): 0.051
- photoluminescence quantum yield (in OCC(F)(F)F): 0.074

Compound: COC(=O)C(NC(=O)OC(C)(C)C)c1ccc2oc(-c3cc(C(F)(F)F)cc(C(F)(F)F)c3)nc2c1 (stereo not drawn)
- photoluminescence quantum yield (in CC1CCCCC1): 0.54
- photoluminescence quantum yield (in CC#N): 0.46
- photoluminescence quantum yield (in CO): 0.44

Compound: COc1cccc(-c2c3ccccc3c3n2[B-](F)(F)[N+]2=Cc4c5ccccc5c(-c5cccc(OC)c5)n4[B-](F)(F)[N+]2=C3)c1
- photoluminescence quantum yield (in CC#N): 0.24
- photoluminescence quantum yield (in CCCCCC): 0.34
- photoluminescence quantum yield (in CN(C)C=O): 0.27
- photoluminescence quantum yield (in Cc1ccccc1): 0.34
- photoluminescence quantum yield (in ClCCl): 0.36

Compound: O=C([O-])c1ccccc1-c1c2ccc(=O)cc-2oc2cc([O-])ccc12
- photoluminescence quantum yield (in O): 0.95

Compound: CC(C)(C)c1ccc2c(c1)c1cc(C(C)(C)C)ccc1n2-c1nc2ccccc2nc1-n1c2ccc(C(C)(C)C)cc2c2cc(C(C)(C)C)ccc21
- photoluminescence quantum yield (in Cc1ccccc1): 0.32

Compound: Cc1ccc(-c2ccc(/C=C/c3ccc(Cl)cc3)cn2)nc1
- photoluminescence quantum yield (in CC#N): 0.76

Compound: CC1(C)CC(/C=C/c2ccc(-n3c4ccccc4c4ccccc43)cc2)=CC(=C(C#N)C#N)C1
- photoluminescence quantum yield (in CCO): 0.005

Compound: Cc1cc(C)c(B(c2ccccc2-n2c3ccccc3c3ccccc32)c2c(C)cc(C)cc2C)c(C)c1
- photoluminescence quantum yield (in Cc1ccccc1): 0.79

Compound: N#Cc1ccc(C[C@H](N)C(=O)O)cc1
- photoluminescence quantum yield (in C1CCOC1): 0.031
- photoluminescence quantum yield (in CC#N): 0.026
- photoluminescence quantum yield (in CC(C)O): 0.071
- photoluminescence quantum yield (in CC(O)CO): 0.1
- photoluminescence quantum yield (in CCCCO): 0.079
- photoluminescence quantum yield (in CCCO): 0.074
- photoluminescence quantum yield (in CCO): 0.034
- photoluminescence quantum yield (in CO): 0.076
- photoluminescence quantum yield (in NC=O): 0.083
- photoluminescence quantum yield (in O): 0.11
- photoluminescence quantum yield (in O=CO): 0.17

Compound: COc1cc(/C=C/c2nc3ccccc3o2)c(OC)cc1/C=C/c1nc(C)nc(C)n1
- photoluminescence quantum yield (in C1CCOC1): 0.89
- photoluminescence quantum yield (in CC#N): 0.85
- photoluminescence quantum yield (in ClC(Cl)Cl): 0.86
- photoluminescence quantum yield (in ClCCl): 0.86

Compound: CC(=O)c1ccc(-c2nc3ccc(N(C)C)c(Br)c3s2)cc1
- photoluminescence quantum yield (in C1CCCCC1): 0.11
- photoluminescence quantum yield (in CC#N): 0.54
- photoluminescence quantum yield (in CO): 0.046
- photoluminescence quantum yield (in ClC(Cl)Cl): 0.82

Compound: F[B-]1(F)n2c(nc3c4ccccc4c4ccccc4c32)-c2ccc3ccccc3[n+]21
- photoluminescence quantum yield (in ClCCl): 0.9

Compound: N#CC1=CC(C=O)=CC(C#N)=P1(c1ccccc1)c1ccccc1
- photoluminescence quantum yield (in ClC(Cl)Cl): 0.72

Compound: COc1ccc2c(c1)CCC1=C(C#Cc3ccccc3)O[B-](F)(F)[O+]=C12
- photoluminescence quantum yield (in ClCCl): 0.8

Compound: Cc1ccc2nc3c(nc2c1)c(-c1ccccc1)nn3C
- photoluminescence quantum yield (in C1CCCCC1): 0.29
- photoluminescence quantum yield (in C1CCOC1): 0.47
- photoluminescence quantum yield (in CC#N): 0.31

Compound: C(S/C=C/c1ccc(-c2ccc(/C=C/SC=C3CCCCCC3)cc2)cc1)=C1CCCCCC1
- photoluminescence quantum yield (in ClCCl): 0.176

Compound: COc1ccc(-c2nc(-c3ccccc3OC)[nH]c2-c2ccc(OC)cc2)cc1
- photoluminescence quantum yield (in CO): 0.27

Compound: COCCN1C(=O)/C(=C/c2cccc(N(C)C)c2)N=C1C
- photoluminescence quantum yield (in C1CCOC1): 0.13
- photoluminescence quantum yield (in CC#N): 0.04
- photoluminescence quantum yield (in CCCCCC): 0.45

Compound: CCOC(=O)C1=C(C(=O)OCC)C2(c3ccccc3-c3ccccc32)[C@@H](c2ccc(Cl)cc2)C=C2c3cc(OC)c(OC)cc3CCN21
- photoluminescence quantum yield (in ClCCl): 0.00114

Compound: CCN(CC)c1ccc2cc(-c3nc4c5ccccc5c5ccccc5c4n3-c3ccc(C(C)(C)C)cc3)c(=O)oc2c1
- photoluminescence quantum yield (in ClCCl): 0.97

Compound: C(=C\N1CCCC1)/c1nc2ccccc2nc1-c1ccccc1
- photoluminescence quantum yield (in C1CCCCC1): 0.186
- photoluminescence quantum yield (in C1CCOC1): 0.445
- photoluminescence quantum yield (in CC#N): 0.199
- photoluminescence quantum yield (in CC(C)=O): 0.284
- photoluminescence quantum yield (in CCO): 0.023
- photoluminescence quantum yield (in CO): 0.006
- photoluminescence quantum yield (in CS(C)=O): 0.112
- photoluminescence quantum yield (in Cc1ccccc1): 0.49
- photoluminescence quantum yield (in ClCCl): 0.598

— the Deep4Chem optical property database
